Source: ChEMBL document CHEMBL1201862, “PubChem BioAssay data set” (2004)
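Dose response: 5 concentrations. Exposure: 48 h. Format: 96-well plates. Endpoint: linear interpolation; highest concentration if not reached. GI50 is the concentration that inhibits growth by half.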 Activity calls are given as the source filed them. Rule as the data show it: active = GI50 up to about 1.1 µM and inactive = higher.

Legend:
Assay in all cases: NCI-60 cell line screen, 48 h
[1] = test system: BT-549
[2] = test system: HCC 2998
[3] = test system: HCT-116
[4] = test system: LOX IMVI
[5] = test system: M14
[6] = test system: MDA-MB-231
[7] = test system: MDA-N
[8] = test system: NCI-H23
[9] = test system: NCI-H460
[10] = test system: OVCAR-3
[11] = test system: OVCAR-4
[12] = test system: OVCAR-5
[13] = test system: RXF 393
[14] = test system: SF-539
[15] = test system: SNB-75
[16] = test system: SW-620
[17] = test system: UACC-257
[18] = test system: UACC-62
[19] = test system: A498

Measured: GI50

CC1=C(C(=O)OCc2ccncc2)C(C2=C(C)SCCS2)C(C(=O)OCc2ccncc2)=C(C)N1
inactive: [1] 20.4 µM | [2] > 10 µM | [3] 15.1 µM | [4] 18.8 µM | [5] 28.7 µM | [6] 26.9 µM | [7] 30.5 µM | [8] 24.2 µM | [9] 23.4 µM | [10] 19.3 µM | [11] 38.3 µM | [12] 40.7 µM | [13] 12 µM | [14] 16.4 µM | [15] 15.8 µM | [16] 25.6 µM | [17] 17.1 µM | [18] 16.3 µM

O=C(Nc1nc(C23CC4CC(CC(C4)C2)C3)cs1)c1cc2c(ccc3ccccc32)oc1=O
inactive: [19] > 100 µM | [1] > 100 µM | [2] > 100 µM | [3] > 100 µM | [4] > 100 µM | [6] > 100 µM | [7] > 100 µM | [8] > 100 µM | [9] > 100 µM | [10] > 100 µM | [11] > 100 µM | [12] > 100 µM | [14] > 100 µM | [16] > 100 µM | [17] > 100 µM

O=C1C(/N=N/c2ccc(-c3nc4ccccc4o3)cc2)NC(=S)N1c1ccccc1 (stereo not drawn)
inactive: [1] > 100 µM | [2] > 100 µM | [3] > 100 µM | [4] 35.5 µM | [5] 62.7 µM | [6] > 100 µM | [7] 32.8 µM | [8] > 100 µM | [9] 70.3 µM | [10] 23.6 µM | [11] 82 µM | [12] > 100 µM | [13] 83.8 µM | [14] > 100 µM | [15] 62.4 µM | [16] 32.3 µM | [17] 39.1 µM | [18] 80.2 µM

O=C(Nc1nnc(-c2c(Cl)c(Cl)c(Cl)c(Cl)c2-c2nc3cc(C(=O)c4ccccc4)ccc3[nH]2)o1)c1ccc(Cl)cc1
inactive: [19] 18.2 µM | [1] 41.9 µM | [3] 36.5 µM | [4] 34.8 µM | [5] 35.5 µM | [6] 48.6 µM | [7] 5.89 µM | [8] 26.8 µM | [10] 13.8 µM | [11] 24.7 µM | [12] > 100 µM | [13] 26.5 µM | [14] 22.4 µM | [15] 47.8 µM | [16] 57 µM | [17] 36.8 µM

COc1cc(C2c3cc4c(cc3OC(N3CCOCC3)C2C)OCO4)ccc1O (stereo not drawn)
inactive: [19] 17.6 µM | [1] 10.3 µM | [2] 14.9 µM | [3] 8.34 µM | [4] 11.8 µM | [5] 6.34 µM | [7] 1.76 µM | [8] 28.6 µM | [9] 12 µM | [10] 7.62 µM | [11] 50.9 µM | [12] > 76.2 µM | [13] 11.5 µM | [14] 11.3 µM | [15] 7.64 µM | [16] 6.3 µM | [17] 40.7 µM | [18] 8.05 µM

CC(C)(C)c1cc(C2NC(=O)NC2=O)cc(C(C)(C)C)c1O (stereo not drawn)
inactive: [19] > 100 µM | [1] > 100 µM | [3] 27.9 µM | [4] > 100 µM | [5] > 100 µM | [6] 35.6 µM | [7] 47 µM | [8] 56.8 µM | [10] 34.1 µM | [11] > 100 µM | [12] > 100 µM | [13] 33.3 µM | [14] > 100 µM | [15] 29.4 µM | [16] 53.6 µM | [18] 45.1 µM

COc1ccc2c(c1)CCN1CCc3ccccc3CC21 (stereo not drawn)
inactive: [19] 30 µM | [1] 34 µM | [2] 21.2 µM | [3] 20.4 µM | [4] 24 µM | [5] 18.2 µM | [6] 52.2 µM | [7] 27.4 µM | [8] 39 µM | [9] 30.8 µM | [10] 72.4 µM | [11] > 100 µM | [12] 30.3 µM | [14] 36.6 µM | [15] 30.2 µM | [16] 45.3 µM | [17] 29.7 µM | [18] 32.3 µM

N#Cc1ccc(OCc2ccc3nc(-c4ccccc4)c(Cl)nc3c2)cc1
inactive: [19] > 100 µM | [1] > 100 µM | [2] > 100 µM | [3] > 100 µM | [4] > 100 µM | [5] > 100 µM | [6] > 100 µM | [7] > 100 µM | [8] > 100 µM | [9] > 100 µM | [10] > 100 µM | [11] > 100 µM | [12] > 100 µM | [14] > 100 µM | [15] > 100 µM | [16] > 100 µM | [17] > 100 µM | [18] > 100 µM

O=C(Nc1nnc(-c2ccccc2)o1)C(SC(=S)N1CCCCC1)c1ccccc1 (stereo not drawn)
inactive: [19] 27.3 µM | [1] 14 µM | [3] 13.4 µM | [4] 4.16 µM | [5] 12.6 µM | [6] 38.5 µM | [7] 20.7 µM | [8] 12.4 µM | [9] 7.66 µM | [10] 17.3 µM | [11] 30.5 µM | [12] 26.6 µM | [13] 26.3 µM | [14] 28.1 µM | [15] 30.4 µM | [16] 31.8 µM | [17] 32.4 µM

N#Cc1c(N)nc(-c2ccc(Cl)cc2)c2c1-c1ccccc1S(=O)(=O)CC2
inactive: [19] > 100 µM | [1] 27.5 µM | [2] > 100 µM | [3] > 100 µM | [4] > 100 µM | [5] > 100 µM | [6] > 100 µM | [7] > 100 µM | [8] 66.2 µM | [9] 45.1 µM | [10] > 100 µM | [11] 23.2 µM | [12] > 100 µM | [15] > 100 µM | [16] > 100 µM | [17] > 100 µM | [18] > 100 µM

CC1=NNC(=O)C1C1C(=O)NN=C(c2c[nH]c3ccccc23)C1Br (stereo not drawn)
inactive: [19] > 100 µM | [1] > 100 µM | [3] 35.7 µM | [4] 62.1 µM | [5] 23.2 µM | [6] > 100 µM | [7] 59.8 µM | [8] 74.5 µM | [9] 38.7 µM | [10] 26.3 µM | [12] > 100 µM | [13] > 100 µM | [14] 50.2 µM | [15] 13.1 µM | [16] 40.6 µM | [17] > 100 µM | [18] 83.4 µM
